From the supplement of paper PMC11061612

Assays:
[1] = tested on: CHSA8926 (Chondrosarcoma); experiment: combination Emax (second highest fraction inhibited in the dose matrix, 72 h); higher = more inhibition; extreme values may be limits of the assay
Summary of the method: (§1)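 Cell lines in DMEM/F12 or RPMI with 10% FBS were plated in 1536-well plates, held 24 hours at 37°C, 5% CO2, then given two-drug dose matrices for 72 hours (DMSO typically 0.2%). Viability was read by CellTiter-Glo 2.0 luminescence and scaled as inhibition from 0 (vehicle wells) to 1 (blank wells). Combination Emax is the second-highest inhibition in the matrix; Bliss excess is observed combination effect minus expected EA + EB − EA·EB, EA and EB being single-agent effects.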

[2] = tested on: MOLM-13 (Acute Myeloid Leukemia); experiment: as above
Summary of the method: as §1

[3] = tested on: HCC1187 (Breast Carcinoma); experiment: as above
Summary of the method: as §1

[4] = tested on: ESO51 (Esophageal Adenocarcinoma); experiment: as above
Summary of the method: as §1

[5] = tested on: SUP-B15 (B-Lymphoblastic Leukemia); experiment: as above
Summary of the method: as §1

[6] = tested on: DAN-G (Pancreatic Carcinoma); experiment: as above
Summary of the method: as §1

[7] = tested on: PC-3 (Prostate Carcinoma); experiment: as above
Summary of the method: as §1

[8] = tested on: SU-DHL-5 (B-Cell Non-Hodgkin's Lymphoma); experiment: as above
Summary of the method: as §1

G-361 (Melanoma) [9] = experiment: as above
Summary of the method: as §1

[10] = tested on: JHH-4 (Hepatocellular Carcinoma); experiment: as above
Summary of the method: as §1

[11] = tested on: KMS-12-BM (Plasma Cell Myeloma); experiment: as above
Summary of the method: as §1

[12] = tested on: NCI-H661 (Non-Small Cell Lung Carcinoma); experiment: as above
Summary of the method: as §1

[13] = tested on: H9 (T-Cell Non-Hodgkin's Lymphoma); experiment: as above
Summary of the method: as §1

[14] = tested on: IM-95 (Gastric Carcinoma); experiment: as above
Summary of the method: as §1

[15] = tested on: SNU-398 (Hepatocellular Carcinoma); experiment: as above
Summary of the method: as §1

[16] = tested on: SK-GT-2 (Gastric Carcinoma); experiment: as above
Summary of the method: as §1

[17] = tested on: KY821 (Acute Myeloid Leukemia); experiment: as above
Summary of the method: as §1

RD (Rhabdomyosarcoma) [18] = experiment: as above
Summary of the method: as §1

[19] = tested on: 8505C (Thyroid Gland Carcinoma); experiment: as above
Summary of the method: as §1

[20] = tested on: RPMI-8226 (Plasma Cell Myeloma); experiment: as above
Summary of the method: as §1

[21] = tested on: CHSA8926 (Chondrosarcoma); experiment: Bliss excess, mean over the matrix (fraction); higher = more synergy
Summary of the method: as §1

[22] = tested on: MOLM-13 (Acute Myeloid Leukemia); experiment: as above
Summary of the method: as §1

[23] = tested on: HCC1187 (Breast Carcinoma); experiment: as above
Summary of the method: as §1

[24] = tested on: ESO51 (Esophageal Adenocarcinoma); experiment: as above
Summary of the method: as §1

[25] = tested on: SUP-B15 (B-Lymphoblastic Leukemia); experiment: as above
Summary of the method: as §1

[26] = tested on: DAN-G (Pancreatic Carcinoma); experiment: as above
Summary of the method: as §1

[27] = tested on: PC-3 (Prostate Carcinoma); experiment: as above
Summary of the method: as §1

[28] = tested on: SU-DHL-5 (B-Cell Non-Hodgkin's Lymphoma); experiment: as above
Summary of the method: as §1

G-361 (Melanoma) [29] = experiment: as above
Summary of the method: as §1

[30] = tested on: JHH-4 (Hepatocellular Carcinoma); experiment: as above
Summary of the method: as §1

[31] = tested on: KMS-12-BM (Plasma Cell Myeloma); experiment: as above
Summary of the method: as §1

[32] = tested on: NCI-H661 (Non-Small Cell Lung Carcinoma); experiment: as above
Summary of the method: as §1

[33] = tested on: H9 (T-Cell Non-Hodgkin's Lymphoma); experiment: as above
Summary of the method: as §1

[34] = tested on: IM-95 (Gastric Carcinoma); experiment: as above
Summary of the method: as §1

[35] = tested on: SNU-398 (Hepatocellular Carcinoma); experiment: as above
Summary of the method: as §1

[36] = tested on: SK-GT-2 (Gastric Carcinoma); experiment: as above
Summary of the method: as §1

[37] = tested on: KY821 (Acute Myeloid Leukemia); experiment: as above
Summary of the method: as §1

RD (Rhabdomyosarcoma) [38] = experiment: as above
Summary of the method: as §1

[39] = tested on: 8505C (Thyroid Gland Carcinoma); experiment: as above
Summary of the method: as §1

[40] = tested on: RPMI-8226 (Plasma Cell Myeloma); experiment: as above
Summary of the method: as §1

[41] = tested on: HCC1419 (Breast Carcinoma); experiment: combination Emax (second highest fraction inhibited in the dose matrix, 72 h); higher = more inhibition; extreme values may be limits of the assay
Summary of the method: as §1

[42] = tested on: HCC1419 (Breast Carcinoma); experiment: Bliss excess, mean over the matrix (fraction); higher = more synergy
Summary of the method: as §1
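Wherever Bliss excess, mean over the matrix is given: after 72 h of two-drug dosing.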

## CC(=O)c1c(C)c2cnc(Nc3ccc(N4CCNCC4)cn3)nc2n(C2CCCC2)c1=O [Palbociclib] + CN(CC[C@H](CSC1=CC=CC=C1)NC2=C(C=C(C=C2)S(=O)(=O)NC(=O)C3=CC=C(C=C3)N4CCC(CC4)[C@H](C5=CC=CC=C5C6=CC=C(C=C6)Cl)O)S(=O)(=O)C(F)(F)F)CCO [AZD4320] (first compound max 10 µM, 7x7, partner max 1 µM)
[1]
  combination Emax: 0.741
[2]
  combination Emax: 1
[3]
  combination Emax: 0.239
[4]
  combination Emax: 0.15
[5]
  combination Emax: 1
[6]
  combination Emax: 0.288
[7]
  combination Emax: 0.159
[8]
  combination Emax: 1
G-361 (Melanoma) [9]
  combination Emax: 0.598
[10]
  combination Emax: 0.703
[11]
  combination Emax: 1
[12]
  combination Emax: 0.107
[13]
  combination Emax: 0.983
[14]
  combination Emax: 0.471
[15]
  combination Emax: 0.308
[16]
  combination Emax: 0.531
[17]
  combination Emax: 1
RD (Rhabdomyosarcoma) [18]
  combination Emax: 0.875
[19]
  combination Emax: 0.0974
[20]
  combination Emax: 0.95
[21]
  Bliss excess: -0.0753
[22]
  Bliss excess: -0.0259
[23]
  Bliss excess: -0.0429
[24]
  Bliss excess: -0.0853
[25]
  Bliss excess: -0.0515
[26]
  Bliss excess: -0.0408
[27]
  Bliss excess: -0.0472
[28]
  Bliss excess: -0.0381
G-361 (Melanoma) [29]
  Bliss excess: -0.0222
[30]
  Bliss excess: -0.0051
[31]
  Bliss excess: 0.0159
[32]
  Bliss excess: -0.0643
[33]
  Bliss excess: -0.0114
[34]
  Bliss excess: -0.133
[35]
  Bliss excess: -0.0484
[36]
  Bliss excess: -0.0151
[37]
  Bliss excess: -0.0069
RD (Rhabdomyosarcoma) [38]
  Bliss excess: 0.0323
[39]
  Bliss excess: -0.0924
[40]
  Bliss excess: -0.0531

## C[C@@H](c1ccc2nccn2c1)n1nnc2ncc(-c3cnn(C)c3)nc21 [Savolitinib] + CN(CC[C@H](CSC1=CC=CC=C1)NC2=C(C=C(C=C2)S(=O)(=O)NC(=O)C3=CC=C(C=C3)N4CCC(CC4)[C@H](C5=CC=CC=C5C6=CC=C(C=C6)Cl)O)S(=O)(=O)C(F)(F)F)CCO [AZD4320] (first compound max 1 µM, 7x7, partner max 1 µM)
[1]
  combination Emax: 0.528
[2]
  combination Emax: 1
[3]
  combination Emax: 0.205
[4]
  combination Emax: 0.95
[5]
  combination Emax: 1
[6]
  combination Emax: 0.199
[7]
  combination Emax: 0.189
[8]
  combination Emax: 0.24
G-361 (Melanoma) [9]
  combination Emax: 0.198
[10]
  combination Emax: 0.256
[11]
  combination Emax: 1
[12]
  combination Emax: 0.189
[13]
  combination Emax: 0.929
[41]
  combination Emax: 0.325
[14]
  combination Emax: 0.675
[15]
  combination Emax: 0.245
[16]
  combination Emax: 0.136
[17]
  combination Emax: 1
RD (Rhabdomyosarcoma) [18]
  combination Emax: 0.646
[19]
  combination Emax: 0.201
[20]
  combination Emax: 0.944
[21]
  Bliss excess: -0.0241
[22]
  Bliss excess: 0.0288
[23]
  Bliss excess: -0.0091
[24]
  Bliss excess: -0.0038
[25]
  Bliss excess: -0.0182
[26]
  Bliss excess: -0.0378
[27]
  Bliss excess: -0.0418
[28]
  Bliss excess: -0.0451
G-361 (Melanoma) [29]
  Bliss excess: -0.0621
[30]
  Bliss excess: -0.0309
[31]
  Bliss excess: -0.0005
[32]
  Bliss excess: -0.0669
[33]
  Bliss excess: -0.0425
[42]
  Bliss excess: -0.0736
[34]
  Bliss excess: -0.0477
[35]
  Bliss excess: -0.0665
[36]
  Bliss excess: -0.0294
[37]
  Bliss excess: 0.0059
RD (Rhabdomyosarcoma) [38]
  Bliss excess: -0.0348
[39]
  Bliss excess: -0.0719
[40]
  Bliss excess: -0.0379
